Test results as given in PubChem BioAssay (NCI).
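Following 48 hours of exposure in 96-well plates, responses at five concentrations were used to interpolate endpoints linearly. GI50 = concentration required for 50% inhibition of growth. The concentration for full growth arrest is given as TGI.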

Columns and labels:
Assay in all cases: DTP human tumour cell line panel, 48 h
[1] = test system: NCI-H460 lung
[2] = test system: SR leukemia
[3] = test system: MCF7 breast
[4] = test system: OVCAR-8 ovarian
[5] = test system: NCI-H522 lung
[6] = test system: A549 NSCLC
[7] = test system: HCC-2998 colon
[8] = test system: HT29 colon
[9] = test system: EKVX NSCLC
[10] = test system: 786-0 renal

## CC[C@]12CCCN3CC[C@]4(C(=C(C(=O)OC)C1)Nc1ccccc14)[C@@H]32
[1]
  GI50: 18.1 µM
  TGI: 38.3 µM
[2]
  GI50: 17.2 µM
  TGI: > 100 µM
[3]
  GI50: 16 µM
  TGI: 33.8 µM
[4]
  GI50: 17.6 µM
  TGI: 38.9 µM
[5]
  GI50: 13 µM
  TGI: 30.3 µM
[6]
  GI50: 16.3 µM
  TGI: 42.6 µM
[7]
  GI50: 14.6 µM
  TGI: 29 µM
[8]
  GI50: 14.1 µM
  TGI: 33.9 µM
[9]
  GI50: 18.9 µM
  TGI: 63.1 µM
[10]
  GI50: 13.9 µM
  TGI: 29.1 µM

## O=S(=O)(NCCCNc1cc(-c2cn(-c3ccccc3)nc2-c2cccc(O)c2)ccn1)c1ccc(Cl)cc1
[1]
  GI50: 1.68 µM
  TGI: 3.32 µM
[2]
  GI50: 1.58 µM
  TGI: 5.16 µM
[3]
  GI50: 1.84 µM
  TGI: 5.01 µM
[4]
  GI50: 2.11 µM
  TGI: 6.06 µM
[5]
  GI50: 1.88 µM
  TGI: 4.06 µM
[6]
  GI50: 2.64 µM
  TGI: 10.1 µM
[7]
  GI50: 1.82 µM
  TGI: 3.46 µM
[8]
  GI50: 0.471 µM
  TGI: 1.7 µM
[9]
  GI50: 2.05 µM
  TGI: 29.6 µM
[10]
  GI50: 1.56 µM
  TGI: 4.19 µM

## Nc1nc2c(c3cnccc13)C(c1cccc(Cl)c1)Cc1cnccc1-2 (stereo not given)
[1]
  GI50: 0.385 µM
  TGI: 11.6 µM
[2]
  GI50: 0.293 µM
  TGI: > 100 µM
[3]
  GI50: 0.292 µM
  TGI: 11.6 µM
[4]
  GI50: 0.601 µM
  TGI: 22.5 µM
[5]
  GI50: 0.247 µM
  TGI: 0.718 µM
[6]
  GI50: 0.552 µM
  TGI: 10.6 µM
[7]
  GI50: 1.29 µM
  TGI: 12.8 µM
[8]
  GI50: 0.336 µM
  TGI: 2.56 µM
[9]
  GI50: 0.441 µM
  TGI: 15.1 µM
[10]
  GI50: 0.396 µM
  TGI: 10.6 µM
